Legend:
Homo sapiens = species: Homo sapiens; details: hepatocytes
Description: In vitro clearance in human in 1000000 cells

Rattus norvegicus = species: Rattus norvegicus; details: hepatocytes
Description: In vitro clearance in rat in 1000000 cells

clinical [1] = details: human, in vivo
Description: In vivo clearance in human

in vivo [2] = details: rat
in vivo [3] = details: dog
Canis familiaris = species: Canis familiaris; details: dog, hepatocytes
Description: In vitro clearance in dog in 1000000 cells

in vivo [4] = details: rat; remark: listed apart in the source
Description: In vivo clearance in rat.

clinical [5] = details: human, in vivo; remark: listed apart in the source
Description: In vivo clearance in human.

in vivo [6] = details: dog; remark: listed apart in the source
Description: In vivo clearance in dog.

| Structure (SMILES) | clearance (Homo sapiens) [µL/min] | clearance (Rattus norvegicus) [µL/min] | clearance (clinical [1]) [mL/min/kg] | clearance (in vivo [2]) [mL/min/kg] | clearance (in vivo [3]) [mL/min/kg] | clearance (Canis familiaris) [µL/min] | clearance (in vivo [4]) [mL/min/kg] | clearance (clinical [5]) [mL/min/kg] | clearance (in vivo [6]) [mL/min/kg] |
| --- | --- | --- | --- | --- | --- | --- | --- | --- | --- |
| Cc1ccc(C(=O)c2cc(O)c(O)c([N+](=O)[O-])c2)cc1 [TOLCAPONE] | 1.2 | 2.6 | 2.7 | 15 | 3.3 | 1.4 | – | – | – |
| CCOC(=O)C1=C(C)NC(C)=C(C(=O)OC)C1c1cccc([N+](=O)[O-])c1 (stereo not given) [NITRENDIPINE] | 12 | 24 | 18.7 | 16.5 | 21.7 | 8.1 | – | – | – |
| COc1ccccc1Oc1c(NS(=O)(=O)c2ccc(C(C)(C)C)cc2)nc(-c2ncccn2)nc1OCCO [BOSENTAN] | 0.2 | 1.3 | – | – | – | 0.2 | 55 | 3.7 | 1.9 |
| COCC(=O)O[C@]1(CCN(C)CCCc2nc3ccccc3[nH]2)CCc2cc(F)ccc2[C@@H]1C(C)C [MIBEFRADIL] | 0.9 | 5.4 | – | – | – | 6.2 | 94 | 7 | 36 |
| COc1ccc([C@@H]2Sc3ccccc3N(CCN(C)C)C(=O)[C@@H]2OC(C)=O)cc1 [DILTIAZEM] | 1.9 | 43.6 | – | – | – | 2.7 | 87.2 | – | 46.1 |
| Cn1c(=O)c2c(ncn2C)n(C)c1=O [CAFFEINE] | 0.1 | 0.6 | 2 | 13 | 2.6 | 0.2 | – | – | – |
| CC(C)(C)S(=O)(=O)C[C@@H](Cc1ccccc1)C(=O)N[C@@H](Cc1cnc[nH]1)C(=O)N[C@@H](CC1CCCCC1)[C@@H](O)[C@@H](O)C1CC1 | 19.5 | 16.6 | 19.6 | 119 | 3 | – | – | – | – |
| Cc1ncc2n1-c1ccc(Cl)cc1C(c1ccccc1F)=NC2 [MIDAZOLAM] | 4.5 | 16.7 | – | – | – | – | 130 | 11 | – |
| O=C1Nc2ccc(Cl)cc2C(c2ccccc2Cl)=NC1O (stereo not given) [LORAZEPAM] | 0.3 | 3.8 | 1.1 | 27.2 | 26.1 | 18.1 | – | – | – |
| C=CCN1CC[C@]23c4c5ccc(O)c4O[C@H]2C(=O)CC[C@@]3(O)[C@H]1C5 [NALOXONE] | 16.7 | 54.6 | 25 | 48.8 | 42.5 | 32.1 | – | – | – |
| Cn1c(=O)c2[nH]cnc2n(C)c1=O.O [THEOPHYLLINE] | 0.1 | 0.2 | 0.6 | 2.2 | 1.5 | 0.2 | – | – | – |
| C/C(=C\c1ccc(OCCN2CCOCC2)cc1)c1ccc2c(c1)C(C)(C)CCC2(C)C [MOFAROTENE] | 2 | 2.3 | – | – | – | 1 | 16 | 11 | 5.8 |
| Cc1cc(=O)n(-c2ccccc2)n1C [ANTIPYRINE] | 0.1 | 0.4 | 0.5 | 7 | 4.9 | 1 | – | – | – |
| COC(=O)C1=C(C#N)NC(C)=C(C(=O)OC(C)C)C1c1cccc([N+](=O)[O-])c1 (stereo not given) [NILVADIPINE] | 13.3 | 29.7 | 20 | 94 | 15.3 | 10.9 | – | – | – |
